This note sets out measurements from patent publication US9511058B2, “Methods for using carboxamide, sulfonamide and amine compounds” (Rigel Pharmaceuticals, Inc., priority 2010, dated 2016).

For orientation: EC50 means the midpoint of the concentration-response curve.

The assay deals with AMPK. In words: AMPK activation, enzyme-linked immunosorbent assay. Type of assay: biochemical. The note with it: compounds of Table 5 (Table 10).
Turning to `O=C(NC1CCN(Cc2ccccc2)CC1)c1ccc(OC2CCN(c3cccs3)CC2)c(Cl)c1` [5-10, N-(1-benzylpiperidin-4-yl)-3-chloro-4-(1-(thiophen-2-yl)piperidin-4-yloxy)benzamide], the EC50 was 1000 to 10000 nM. Next, `O=C(NC1CCN(Cc2ccccc2)CC1)c1ccc(OC2CCN(c3ccco3)CC2)c(Cl)c1` [5-11, N-(1-benzylpiperidin-4-yl)-3-chloro-4-(1-(furan-2-yl)piperidin-4-yloxy)benzamide]: 1000 to 10000 nM; `COc1cc(C(=O)NC2CCN(Cc3ccccc3)CC2)ccc1OC1CCN(c2ccco2)CC1` [5-12, N-(1-benzylpiperidin-4-yl)-3-methoxy-4-(1-(furan-2-yl)piperidin-4-yloxy)benzamide]: 1000 to 10000 nM; `O=C(NC1CCN(Cc2ccccc2)CC1)c1cccc(OC2CCN(Cc3ccccc3)CC2)c1` [5-13, N-(1-benzylpiperidin-4-yl)-3-(1-benzylpiperidin-4-yloxy)benzamide]: 20000 to 50000 nM. Next, `O=C(NC1CCN(Cc2ccccc2)CC1)c1ccc(OC2CCN(Cc3ccccc3)CC2)c(Cl)c1` [5-14, N-(1-benzylpiperidin-4-yl)-4-(1-benzylpiperidin-4-yloxy)-3-chlorobenzamide]: less than 1000 nM; `O=C(NC1CCN(Cc2ccccc2)CC1)c1ccc(OC2CCN(Cc3ccc4c(c3)OCCO4)CC2)c(Cl)c1` [5-15, N-(1-benzylpiperidin-4-yl)-3-chloro-4-(1-((2,3-dihydrobenzo[b][1,4]dioxin-6-yl)methyl)piperidin-4-yloxy)benzamide]: less than 1000 nM. For `CC(C)(C)c1ccc(CN2CCC(Oc3ccc(C(=O)NC4CCN(Cc5ccccc5)CC4)cc3Cl)CC2)cc1` [5-16, N-(1-benzylpiperidin-4-yl)-4-(1-(4-tert-butylbenzyl)piperidin-4-yloxy)-3-chlorobenzamide] the value was less than 1000 nM; for `O=C(NC1CCN(Cc2ccccc2)CC1)c1ccc(OC2CCN(c3ccc(C(F)(F)F)cc3)CC2)c(Cl)c1` [5-17, N-(1-benzylpiperidin-4-yl)-3-chloro-4-(1-(4-(trifluoromethyl)phenyl)piperidin-4-yloxy)benzamide], less than 1000 nM; for `O=C(NC1CCN(Cc2ccccc2)CC1)c1ccc(OC2CCN(C(=O)c3ccc(C(F)(F)F)cc3)CC2)c(Cl)c1` [5-18, N-(1-benzylpiperidin-4-yl)-3-chloro-4-(1-(4-(trifluoromethyl)benzoyl)piperidin-4-yloxy)benzamide], less than 1000 nM.

As for `O=C(NC1CCN(Cc2ccccc2)CC1)c1ccc(OC2CCN(Cc3ccc(F)cc3)CC2)c(Cl)c1` [5-19, N-(1-benzylpiperidin-4-yl)-3-chloro-4-(1-(4-fluorobenzyl)piperidin-4-yloxy)benzamide], the EC50 was less than 1000 nM.

As to `CC(C)(C)c1ccc(CN2CCC(Oc3ccc(C(=O)NC4CCN(Cc5ccccc5)CC4)cc3F)CC2)cc1` [5-20, N-(1-benzylpiperidin-4-yl)-3-fluoro-4-(1-(4-tert-butylbenzyl)piperidin-4-yloxy)benzamide], the EC50 was less than 1000 nM. For `CC(c1ccccc1)N1CCC(Oc2ccc(C(=O)NC3CCN(Cc4ccccc4)CC3)cc2F)CC1` (centres unmarked) [5-21, N-(1-benzylpiperidin-4-yl)-3-fluoro-4-(1-(1-phenylethyl)piperidin-4-yloxy)benzamide] the value was 1000 to 10000 nM.

As to `O=C(NC1CCN(Cc2ccccc2)CC1)c1ccc(OC2CCN(C(=O)c3ccc(F)cc3)CC2)c(Cl)c1` [5-22, N-(1-benzylpiperidin-4-yl)-3-chloro-4-(1-(4-fluorobenzoyl)piperidin-4-yloxy)benzamide], the EC50 fell in the range of 1000 to 10000 nM. Next, `O=C(NC1CCN(Cc2ccccc2)CC1)c1ccc(OC2CCN(c3ccc(C(F)(F)F)cc3)CC2)c(F)c1` [5-23, N-(1-benzylpiperidin-4-yl)-3-fluoro-4-(1-(4-(trifluoromethyl)phenyl)piperidin-4-yloxy)benzamide]: less than 1000 nM; `O=C(NC1CCN(Cc2ccccc2)CC1)c1ccc(OC2CCN(Cc3ccccc3C(F)(F)F)CC2)c(Cl)c1` [5-24, N-(1-benzylpiperidin-4-yl)-3-chloro-4-(1-(2-(trifluoromethyl)benzyl)piperidin-4-yloxy)benzamide]: 10000 to 20000 nM; `O=C(NC1CCN(c2ccccc2)CC1)c1ccc(OC2CCN(c3ccc(C(F)(F)F)cc3)CC2)c(F)c1` [5-25, 3-fluoro-N-(1-phenylpiperidin-4-yl)-4-(1-(4-(trifluoromethyl)phenyl)piperidin-4-yloxy)benzamide]: greater than 100000 nM. Next, `CC(C)(C)OC(=O)N1CCC(NC(=O)c2ccc(OC3CCN(c4ccc(C(F)(F)F)cc4)CC3)c(F)c2)CC1` [5-26, tert-butyl 4-(3-fluoro-4-(1-(4-(trifluoromethyl)phenyl)piperidin-4-yloxy)benzamido)piperidine-1-carboxylate]: less than 1000 nM; `O=C(NC1CCN(Cc2ccc(F)cc2)CC1)c1ccc(OC2CCN(c3ccc(C(F)(F)F)cc3)CC2)c(F)c1` [5-27, 3-fluoro-N-(1-(4-fluorobenzyl)piperidin-4-yl)-4-(1-(4-(trifluoromethyl)phenyl)piperidin-4-yloxy)benzamide]: less than 1000 nM; `O=C(NC1CCN(Cc2ccncc2)CC1)c1ccc(OC2CCN(c3ccc(C(F)(F)F)cc3)CC2)c(F)c1` [5-28, 3-fluoro-N-(1-(pyridin-4-ylmethyl)piperidin-4-yl)-4-(1-(4-(trifluoromethyl)phenyl)piperidin-4-yloxy)benzamide]: less than 1000 nM. For `O=C(NC1CCN(Cc2cccnc2)CC1)c1ccc(OC2CCN(c3ccc(C(F)(F)F)cc3)CC2)c(F)c1` [5-29, 3-fluoro-N-(1-(pyridin-3-ylmethyl)piperidin-4-yl)-4-(1-(4-(trifluoromethyl)phenyl)piperidin-4-yloxy)benzamide] the value was less than 1000 nM; for `CC(C)(C)C(=O)N1CCC(NC(=O)c2ccc(OC3CCN(c4ccc(C(F)(F)F)cc4)CC3)c(F)c2)CC1` [5-30, 3-fluoro-N-(1-pivaloylpiperidin-4-yl)-4-(1-(4-(trifluoromethyl)phenyl)piperidin-4-yloxy)benzamide], less than 1000 nM.

On to `O=C(NC1CCN(C(=O)c2ccc(F)cc2)CC1)c1ccc(OC2CCN(c3ccc(C(F)(F)F)cc3)CC2)c(F)c1` [5-31, 3-fluoro-N-(1-(4-fluorobenzoyl)piperidin-4-yl)-4-(1-(4-(trifluoromethyl)phenyl)piperidin-4-yloxy)benzamide], for which the EC50 is less than 1000 nM.

`O=C(NC1CCN(Cc2ccccn2)CC1)c1ccc(OC2CCN(c3ccc(C(F)(F)F)cc3)CC2)c(F)c1` [5-32, 3-fluoro-N-(1-(pyridin-2-ylmethyl)piperidin-4-yl)-4-(1-(4-(trifluoromethyl)phenyl)piperidin-4-yloxy)benzamide] returned an EC50 of less than 1000 nM. For `COC(=O)c1ccc(CN2CCC(NC(=O)c3ccc(OC4CCN(c5ccc(C(F)(F)F)cc5)CC4)c(F)c3)CC2)cc1` [5-33, methyl 4-((4-(3-fluoro-4-(1-(4-(trifluoromethyl)phenyl)piperidin-4-yloxy)benzamido)piperidin-1-yl)methyl)benzoate] the value was less than 1000 nM; for `CC(C)S(=O)(=O)N1CCC(NC(=O)c2ccc(OC3CCN(c4ccc(C(F)(F)F)cc4)CC3)c(F)c2)CC1` [5-34, 3-fluoro-N-(1-(isopropylsulfonyl)piperidin-4-yl)-4-(1-(4-(trifluoromethyl)phenyl)piperidin-4-yloxy)benzamide], less than 1000 nM. For `O=C(O)c1ccc(CN2CCC(NC(=O)c3ccc(OC4CCN(c5ccc(C(F)(F)F)cc5)CC4)c(F)c3)CC2)cc1` [5-35, 4-((4-(3-fluoro-4-(1-(4-(trifluoromethyl)phenyl)piperidin-4-yloxy)benzamido)piperidin-1-yl)methyl)benzoic acid] the value was 1000 to 10000 nM; for `CC(C)(C)c1ccc(CN2CCC(Oc3ccc(C(=O)NC4CCN(c5ccccc5)CC4)cc3F)CC2)cc1` [5-36, 4-(1-(4-tert-butylbenzyl)piperidin-4-yloxy)-3-fluoro-N-(1-phenylpiperidin-4-yl)benzamide], less than 1000 nM; for `O=C(NC1CCN(Cc2ccccc2)CC1)c1ccc(OC2CCN(Cc3ccncc3)CC2)c(F)c1` [5-37, N-(1-benzylpiperidin-4-yl)-3-fluoro-4-(1-(pyridin-4-ylmethyl)piperidin-4-yloxy)benzamide], less than 1000 nM.

`O=C(NC1CCN(Cc2ccccc2)CC1)c1ccc(OC2CCN(Cc3cccnc3)CC2)c(F)c1` [5-38, N-(1-benzylpiperidin-4-yl)-3-fluoro-4-(1-(pyridin-3-ylmethyl)piperidin-4-yloxy)benzamide] registered an EC50 of 1000 to 10000 nM. Next, `O=C(NC1CCN(Cc2ccccc2)CC1)c1ccc(OC2CCN(Cc3ccccn3)CC2)c(F)c1` [5-39, N-(1-benzylpiperidin-4-yl)-3-fluoro-4-(1-(pyridin-2-ylmethyl)piperidin-4-yloxy)benzamide]: 1000 to 10000 nM. The compound `O=C(NC1CCN(C(=O)c2ccncc2)CC1)c1ccc(OC2CCN(c3ccc(C(F)(F)F)cc3)CC2)c(F)c1` [5-40, 3-fluoro-N-(1-isonicotinoylpiperidin-4-yl)-4-(1-(4-(trifluoromethyl)phenyl)piperidin-4-yloxy)benzamide] returned an EC50 of less than 1000 nM. For the compound `N#Cc1ccc(CN2CCC(Oc3ccc(C(=O)NC4CCN(Cc5ccccc5)CC4)cc3F)CC2)cc1` [5-41, N-(1-benzylpiperidin-4-yl)-4-(1-(4-cyanobenzyl)piperidin-4-yloxy)-3-fluorobenzamide], the concentration for a half-maximal effect (EC50) is less than 1000 nM. Take `Cc1ccc(CN2CCC(Oc3ccc(C(=O)NC4CCN(Cc5ccccc5)CC4)cc3F)CC2)cc1` [5-42, N-(1-benzylpiperidin-4-yl)-3-fluoro-4-(1-(4-methylbenzyl)piperidin-4-yloxy)benzamide]: the EC50 was less than 1000 nM. Next, `N#Cc1ccc(CN2CCC(NC(=O)c3ccc(OC4CCN(c5ccc(C(F)(F)F)cc5)CC4)c(F)c3)CC2)cc1` [5-43, N-(1-(4-cyanobenzyl)piperidin-4-yl)-3-fluoro-4-(1-(4-(trifluoromethyl)phenyl)piperidin-4-yloxy)benzamide]: less than 1000 nM.

Compound `N#Cc1ccc(N2CCC(Oc3ccc(C(=O)NC4CCN(Cc5ccncc5)CC4)cc3F)CC2)cc1` [5-44, 4-(1-(4-cyanophenyl)piperidin-4-yloxy)-3-fluoro-N-(1-(pyridin-4-ylmethyl)piperidin-4-yl)benzamide] displayed an EC50 of less than 1000 nM.
